Reference: patent US20230331731A1, “CRYSTAL FORM OF PYRROLO HETEROCYCLIC DERIVATIVE AND PREPARATION METHOD THEREFOR” (Jiangsu Hengrui Pharmaceuticals Co., Ltd., priority 2020, published 2023)

Assays:
Format in all cases: physicochemical
[1] = DVS (dynamic vapor sorption) analysis
Method: DVS refers to dynamic vapor sorption: The measurement was conducted on SMS DVS Advantage; at 25° C., the humidity was changed as follows: 50%-95%-0%-95%-50%, in steps of 10% (5% for the last step) (specific humidity ranges are shown in corresponding graphs, and those listed here were used in most cases); the criterion was dm/dt being no greater than 0.002%.

[2] = Influencing factor stability study
[3] = Long-term/accelerated stability study
Method: 1. The hydrobromide in crystal form α was left to stand under 25° C., 60% RH conditions and 40° C., 75% RH conditions to investigate its stability.
4. The fumarate in crystal form II was subjected to 6-month long-term (25° C., 60% RH) and accelerated (40° C., 75% RH) stability studies.

[4] = 40° C., open, 30 days (5/10/30-day study)
[5] = 60° C., open, 30 days (5/10/30-day study)
[6] = 4500 Lux, open, 30 days (5/10/30-day study)
[7] = RH 75%, open, 30 days (5/10/30-day study)

moisture-absorption weight gain ([1]; accelerated conditions, 70% RH): about 2.75%
moisture-absorption weight gain ([1]; extreme conditions, 90% RH): about 3.85%
moisture-absorption weight gain ([1]; normal conditions, 25° C., 60% RH): about 2.38%
crystal form after DVS analysis ([1]; re-examined after DVS): did not change
Color and appearance ([2]; 40° C., open, 5 days): White solid
Purity ([2]; 40° C., open, 5 days): 99.6%
Color and appearance ([2]; 40° C., open, 10 days): White solid
Purity ([2]; 40° C., open, 10 days): 99.5%
Color and appearance [2, 4]: White solid
Purity [2, 4]: 99.2%
Color and appearance ([2]; 60° C., open, 5 days): White solid
Purity ([2]; 60° C., open, 5 days): 99.5%
Color and appearance ([2]; 60° C., open, 10 days): White solid
Purity ([2]; 60° C., open, 10 days): 99.5%
Color and appearance [2, 5]: White solid
Purity [2, 5]: 98.0%
Color and appearance ([2]; 4500 Lux, open, 5 days): White solid
Purity ([2]; 4500 Lux, open, 5 days): 99.6%
Color and appearance ([2]; 4500 Lux, open, 10 days): White solid
Purity ([2]; 4500 Lux, open, 10 days): 99.6%
Color and appearance [2, 6]: White solid
Purity [2, 6]: 98.4%
Color and appearance ([2]; Initial, 0 days (30-day study)): White solid
Purity ([2]; Initial, 0 days (30-day study)): 99.7%
Color and appearance ([2]; RH 75%, open, 5 days): White solid
Purity ([2]; RH 75%, open, 5 days): 99.7%
Weight gain ([2]; RH 75%, open, 5 days): 0.54%
Color and appearance ([2]; RH 75%, open, 10 days): White solid
Purity ([2]; RH 75%, open, 10 days): 99.7%
Weight gain ([2]; RH 75%, open, 10 days): 1.03%
Weight gain ([2]; RH 75%, open, 30 days): 1.42%
Color and appearance [2, 7]: White solid
Purity [2, 7]: 99.7%
Color and appearance ([2]; RH 90%, open, 5 days): White solid
Purity ([2]; RH 90%, open, 5 days): 99.7%
Weight gain ([2]; RH 90%, open, 5 days): 1.16%
Color and appearance ([2]; RH 90%, open, 10 days): White solid
Purity ([2]; RH 90%, open, 10 days): 99.7%
Weight gain ([2]; RH 90%, open, 10 days): 2.77%
Color and appearance ([2]; RH 90%, open, 30 days): White solid
Purity ([2]; RH 90%, open, 30 days): 99.7%
Weight gain ([2]; RH 90%, open, 30 days): 3.97%
Purity, 1 month ([3]; 25° C., 60%RH): 99.7%
Purity, 2 months ([3]; 25° C., 60%RH): 99.7%
Purity, 3 months ([3]; 25° C., 60%RH): 99.7%
Purity, 6 months ([3]; 25° C., 60%RH, 6 months): 99.7%
Purity, 1 month ([3]; 40° C., 75%RH): 99.7%
Purity, 2 months ([3]; 40° C., 75%RH): 99.7%
Purity, 3 months ([3]; 40° C., 75%RH): 99.7%
Purity, 6 months ([3]; 40° C., 75%RH, 6 months): 99.7%
Purity, Initial ([3]; Initial): 99.7%
physical and chemical stability (conclusion) ([3]; long-term (25° C., 60% RH) and accelerated (40° C., 75% RH) conditions, 6 months): good physical and chemical stability
Structure (SMILES): Cn1nccc1Nc1nccc(-c2cc3n(c2)C(=O)N([C@H](CO)c2cccc(Cl)c2)C3)n1.O=C(O)/C=C/C(=O)O [Fumarate in crystal form II]
physical and chemical stability (conclusion) ([2]; high-temperature conditions (40° C. and 60° C.) and high-humidity conditions (75% and 92.5%), 30 days): relatively good physical and chemical stability
